Target: USP19 (Homo sapiens (Human), UniProt O94966)
Experiment: USP19 activity assay (fluorescence polarisation, Ubiquitin-Lys-TAMRA substrate)
Format: biochemical
Conditions: full-length USP19 2.5 nM, 30 min pre-incubation, Ub substrate 500 nM; average of at least two duplicate experiments

USP19, sequence (O94966 whole entry): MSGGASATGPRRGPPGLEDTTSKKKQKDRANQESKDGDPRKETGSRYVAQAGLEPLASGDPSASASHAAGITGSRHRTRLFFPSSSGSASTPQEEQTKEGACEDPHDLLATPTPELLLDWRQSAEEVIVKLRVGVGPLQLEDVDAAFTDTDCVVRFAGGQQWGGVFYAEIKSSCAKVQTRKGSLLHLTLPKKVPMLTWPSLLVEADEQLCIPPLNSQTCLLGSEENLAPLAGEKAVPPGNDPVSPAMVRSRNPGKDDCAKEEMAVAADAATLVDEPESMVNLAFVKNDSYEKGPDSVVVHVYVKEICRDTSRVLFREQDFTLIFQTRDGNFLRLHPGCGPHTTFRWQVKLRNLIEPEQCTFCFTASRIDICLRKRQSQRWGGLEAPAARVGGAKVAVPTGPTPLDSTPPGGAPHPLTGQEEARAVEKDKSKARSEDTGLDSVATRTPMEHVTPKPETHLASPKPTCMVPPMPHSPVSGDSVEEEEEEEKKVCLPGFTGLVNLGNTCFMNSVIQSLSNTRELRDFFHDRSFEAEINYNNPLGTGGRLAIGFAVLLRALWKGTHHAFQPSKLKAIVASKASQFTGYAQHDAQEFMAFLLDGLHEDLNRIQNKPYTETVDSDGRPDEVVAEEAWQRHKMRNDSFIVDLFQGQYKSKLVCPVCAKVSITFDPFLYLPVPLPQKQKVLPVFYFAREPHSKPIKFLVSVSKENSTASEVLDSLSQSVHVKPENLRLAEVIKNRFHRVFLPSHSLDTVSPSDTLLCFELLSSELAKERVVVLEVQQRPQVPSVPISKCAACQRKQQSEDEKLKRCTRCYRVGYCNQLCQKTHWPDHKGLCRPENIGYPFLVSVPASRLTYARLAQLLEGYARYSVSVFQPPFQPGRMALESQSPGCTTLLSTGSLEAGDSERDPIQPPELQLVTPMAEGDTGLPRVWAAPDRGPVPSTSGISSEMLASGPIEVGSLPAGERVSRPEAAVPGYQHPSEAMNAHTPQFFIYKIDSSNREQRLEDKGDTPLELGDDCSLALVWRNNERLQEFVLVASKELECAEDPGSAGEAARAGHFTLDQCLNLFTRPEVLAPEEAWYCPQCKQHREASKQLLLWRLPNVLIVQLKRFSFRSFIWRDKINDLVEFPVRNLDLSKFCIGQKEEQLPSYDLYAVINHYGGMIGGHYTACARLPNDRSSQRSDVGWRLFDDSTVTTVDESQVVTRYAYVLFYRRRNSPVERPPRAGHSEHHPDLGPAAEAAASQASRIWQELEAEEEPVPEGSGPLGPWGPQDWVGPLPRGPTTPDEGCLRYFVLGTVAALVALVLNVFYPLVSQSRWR

SMILES	IC50 [µM]
CC1(C)CN(C(=O)CCC2CC2)CCC1(O)Cn1cnc(-c2ccccc2F)cc1=O (racemic) [Example 83, (R,S)-3-((1-(3-Cyclopropylpropanoyl)-4-hydroxy-3,3-dimethylpiperidin-4-yl)methyl)-6-(2-fluorophenyl)pyrimidin-4(3H)-one]	50 to 250
C[C@H](CC(=O)N1CCC(O)(Cn2cnc(-c3ccco3)cc2=O)CC1)c1ccccc1 [Example 26, (R)-6-(Furan-2-yl)-3-((4-hydroxy-1-(3-phenylbutanoyl)piperidin-4-yl)methyl)pyrimidin-4(3H)-one]	50 to 250
CC(C)CC(C)C(=O)N1CCC(O)(Cn2cc(C(=O)N(C)C)c(-c3ccccc3)cc2=O)C2(CCCC2)C1 (stereo not drawn) [Example 197]	< 0.5
O=C(CCC1CCCCC1)N1C[C@H]2CC[C@@H](C1)C2(O)Cn1cnc(-c2ccccc2F)cc1=O (stereo partly drawn) [Example 113, 3-(((1R,5S)-3-(3-Cyclohexylpropanoyl)-8-hydroxy-3-azabicyclo[3.2.1]octan-8-yl)methyl)-6-(2-fluorophenyl)pyrimidin-4(3H)-one]	50 to 250
C[C@H](CC(F)(F)F)C(=O)N1CC[C@@](O)(Cn2cc(C(=O)N3CCNCC3)c(-c3ccccc3)cc2=O)C2(CCCC2)C1 [Example 217, 1-(((S)-10-Hydroxy-7-((R)-4,4,4-trifluoro-2-methylbutanoyl)-7-azaspiro[4.5]decan-10-yl)methyl)-4-phenyl-5-(piperazine-1-carbonyl)pyridin-2(1H)-one]	< 0.5
C[C@H](CC(=O)N1CCC(O)(Cn2cc(-c3ccccn3)c(-c3ccccc3)cc2=O)CC1)c1ccccc1 [Example 91, (R)-1′-((4-Hydroxy-1-(3-phenylbutanoyl)piperidin-4-yl)methyl)-4′-phenyl-[2,3′-bipyridin]-6′(1′H)-one]	0.5 to 5
CC(C)N(C)C(=O)c1cn(CC2(O)CCN(C(=O)C3(c4cccs4)CC3)CC2)c(=O)cc1-c1ccccc1 [Example 72, 1-((4-Hydroxy-1-(1-(thiophen-2-yl)cyclopropane-1-carbonyl)piperidin-4-yl)methyl)-N-isopropyl-N-methyl-6-oxo-4-phenyl-1,6-dihydropyridine-3-carboxamide]	50 to 250
C[C@H](CC(=O)N1CCC(O)(Cn2cc(C(=O)N3CCC4(CC3)OCCO4)c(-c3ccccc3)cc2=O)CC1)c1ccccc1 [Example 64, (R)-1-((4-Hydroxy-1-(3-phenylbutanoyl)piperidin-4-yl)methyl)-4-phenyl-5-(1,4-dioxa-8-azaspiro[4.5]decane-8-carbonyl)pyridin-2(1H)-one]	5 to 50
C[C@H](CC1CCC1)C(=O)N1CC[C@@](O)(Cn2cc(C(=O)N(C)C)c(-c3ccccc3F)cc2=O)C(C)(C)C1 [Example 235, 1-(((S)-1-((R)-3-Cyclobutyl-2-methylpropanoyl)-4-hydroxy-3,3-dimethylpiperidin-4-yl)methyl)-4-(2-fluorophenyl)-N,N-dimethyl-6-oxo-1,6-dihydropyridine-3-carboxamide]	0.5 to 5
CN(C)C(=O)c1cn(C[C@]2(O)CCN(C(=O)[C@H](CCO)CC3CCCCC3)CC2(C)C)c(=O)cc1-c1ccccc1 [Example 164, 1-(((S)-1-((S)-2-(Cyclohexylmethyl)-4-hydroxybutanoyl)-4-hydroxy-3,3-dimethylpiperidin-4-yl)methyl)-N,N-dimethyl-6-oxo-4-phenyl-1,6-dihydropyridine-3-carboxamide]	< 0.5
Cc1cn(CC2(O)CCN(C(=O)C[C@@H](C)c3ccccc3)CC2)c(=O)cc1-c1ccccc1 [Example 111, (R)-1-((4-Hydroxy-1-(3-phenylbutanoyl)piperidin-4-yl)methyl)-5-methyl-4-phenylpyridin-2(1H)-one]	50 to 250
C[C@H](CC1CCCCC1)C(=O)N1CCC(O)(Cn2cc(C(=O)O)c(-c3ccccc3)cc2=O)C(C)(C)C1 (stereo partly drawn) [Example 241, 1-((1-((R)-3-Cyclohexyl-2-methylpropanoyl)-4-hydroxy-3,3-dimethylpiperidin-4-yl)methyl)-6-oxo-4-phenyl-1,6-dihydropyridine-3-carboxylic acid]	0.5 to 5
CN(C)C(=O)c1cn(CC2(O)CCN(C(=O)C3(C)CCCC3)CC23CCCC3)c(=O)cc1-c1ccccc1 (stereo not drawn) [Example 186, 1-((10-Hydroxy-7-(1-methylcyclopentane-1-carbonyl)-7-azaspiro[4.5]decan-10-yl)methyl)-N,N-dimethyl-6-oxo-4-phenyl-1,6-dihydropyridine-3-carboxamide]	50 to 250
CC1(C)CN(C(=O)[C@H](CO)CC2CCC2)CCC1(O)Cn1cnc(-c2ccccc2F)cc1=O (stereo partly drawn) [Example 200, 3-((1-((S)-3-Cyclobutyl-2-(hydroxymethyl)propanoyl)-4-hydroxy-3,3-dimethylpiperidin-4-yl)methyl)-6-(2-fluorophenyl)pyrimidin-4(3H)-one]	0.5 to 5
CC(CC(=O)N1CCC(O)(Cn2cnc(-c3ccccc3F)cc2=O)C(C)(C)C1)C1CCCCC1 (stereo not drawn) [Example 76, 3-((1-(3-Cyclohexylbutanoyl)-4-hydroxy-3,3-dimethylpiperidin-4-yl)methyl)-6-(2-fluorophenyl)pyrimidin-4(3H)-one]	0.5 to 5
C[C@H](CC(=O)N1CCC(O)(Cn2cc(C(=O)NC3CCCCC3)c(-c3ccccc3)cc2=O)CC1)c1ccccc1 [Example 65, (R)—N-Cyclohexyl-1-((4-hydroxy-1-(3-phenylbutanoyl)piperidin-4-yl)methyl)-6-oxo-4-phenyl-1,6-dihydropyridine-3-carboxamide]	5 to 50
CC(C)N(C)C(=O)c1cn(CC2(O)CCN(C(=O)C3(C)CCc4ccccc4C3)CC2)c(=O)cc1-c1ccccc1F (racemic) [Example 14, (R,S)-4-(2-Fluorophenyl)-1-((4-hydroxy-1-(2-methyl-1,2,3,4-tetrahydronaphthalene-2-carbonyl)piperidin-4-yl)methyl)-N-isopropyl-N-methyl-6-oxo-1,6-dihydropyridine-3-carboxamide]	0.5 to 5
C[C@@H]1CN(C(=O)c2cn(C[C@]3(O)CCN(C(=O)[C@H](C)CC4CCCCC4)CC3(C)C)c(=O)cc2-c2ccccc2)CCN1 [Example 213, 1-(((S)-1-((R)-3-Cyclohexyl-2-methylpropanoyl)-4-hydroxy-3,3-dimethylpiperidin-4-yl)methyl)-5-((R)-3-methylpiperazine-1-carbonyl)-4-phenylpyridin-2(1H)-one]	< 0.5
CON(C)C(=O)c1cn(CC2(O)CCN(C(=O)C[C@@H](C)c3ccccc3)CC2)c(=O)cc1-c1ccccc1 [Example 97, (R)-1-((4-Hydroxy-1-(3-phenylbutanoyl)piperidin-4-yl)methyl)-N-methoxy-N-methyl-6-oxo-4-phenyl-1,6-dihydropyridine-3-carboxamide]	5 to 50
CN(C)C(=O)c1cn(C[C@]2(O)CCN(C(=O)[C@H](CO)CC3CCCCC3)CC2(C)C)c(=O)cc1-c1ccccc1 [Example 152, 1-(((S)-1-((S)-3-Cyclohexyl-2-(hydroxymethyl)propanoyl)-4-hydroxy-3,3-dimethylpiperidin-4-yl)methyl)-N,N-dimethyl-6-oxo-4-phenyl-1,6-dihydropyridine-3-carboxamide]	< 0.5
O=C(c1cn(C[C@]2(O)CCN(C(=O)[C@H](CO)CC(F)(F)F)CC23CCCC3)c(=O)cc1-c1ccccc1)N1CCNCC1 [Example 249, 1-(((S)-10-Hydroxy-7-((S)-4,4,4-trifluoro-2-(hydroxymethyl)butanoyl)-7-azaspiro[4.5]decan-10-yl)methyl)-4-phenyl-5-(piperazine-1-carbonyl)pyridin-2(1H)-one]	< 0.5

Reference: patent publication US11053213B2, “Pharmaceutical compounds” (ALMAC DISCOVERY LIMITED, priority 2016, dated 2021)
